Measured values reported in patent US20100184699A1, “Peptide Derived From Prostate-Related Protein As Cancer Vaccine Candidate For Prostate Cancer Patient Who Is Positive For Hla-A3 Super-Type Allele Molecule” (priority 2005, published 2010).

Tested on: peptide-specific IgG in plasma of prostate cancer patients and healthy donors
Assay: Detection of peptide-specific IgG in plasma by ELISA
Type: binding, human
Conditions: for IgG reactive to peptide in plasma: 1:100-diluted plasma
[1] = Prostate cancer patient 12, A11
[2] = Prostate cancer patient 16, A33
[3] = Prostate cancer patient 17, A33
[4] = Prostate cancer patient 19, A33
[5] = Prostate cancer patient 20, A33
[6] = Prostate cancer patient 14, A33

Row | Substance | IgG reactive to peptide in plasma, Total (positive/tested) (Healthy donors) | IgG reactive to peptide in plasma (Prostate cancer patient 2, A31) | IgG reactive to peptide in plasma (Prostate cancer patient 4, A31) | IgG reactive to peptide in plasma (Prostate cancer patient 5, A31) | IgG reactive to peptide in plasma (Prostate cancer patient 6, A31) | IgG reactive to peptide in plasma (Prostate cancer patient 8, A11) | IgG reactive to peptide in plasma (Prostate cancer patient 9, A11) | IgG reactive to peptide in plasma [1] | IgG reactive to peptide in plasma [2] | IgG reactive to peptide in plasma [3] | IgG reactive to peptide in plasma [4] | IgG reactive to peptide in plasma [5] | IgG reactive to peptide in plasma, Total (positive/tested) (Prostate cancer patients) | IgG reactive to peptide in plasma [6] | IgG reactive to peptide in plasma (Prostate cancer patient 10, A11) | IgG reactive to peptide in plasma (Healthy donor 3, A31)
1 | FQRLGIASGR (PSMA 525-534) [PSMA-derived peptide] | 0/9 | + (IgG reactive to a corresponding peptide was judged to be positive when a difference of the optical density (OD) in a 1:100-diluted plasma was more than 100) | + (IgG reactive to a corresponding peptide was judged to be positive when a difference of the optical density (OD) in a 1:100-diluted plasma was more than 100) | + (IgG reactive to a corresponding peptide was judged to be positive when a difference of the optical density (OD) in a 1:100-diluted plasma was more than 100) | + (IgG reactive to a corresponding peptide was judged to be positive when a difference of the optical density (OD) in a 1:100-diluted plasma was more than 100) | + (IgG reactive to a corresponding peptide was judged to be positive when a difference of the optical density (OD) in a 1:100-diluted plasma was more than 100) | + (IgG reactive to a corresponding peptide was judged to be positive when a difference of the optical density (OD) in a 1:100-diluted plasma was more than 100) | + (IgG reactive to a corresponding peptide was judged to be positive when a difference of the optical density (OD) in a 1:100-diluted plasma was more than 100) | + (IgG reactive to a corresponding peptide was judged to be positive when a difference of the optical density (OD) in a 1:100-diluted plasma was more than 100) | + (IgG reactive to a corresponding peptide was judged to be positive when a difference of the optical density (OD) in a 1:100-diluted plasma was more than 100) | + (IgG reactive to a corresponding peptide was judged to be positive when a difference of the optical density (OD) in a 1:100-diluted plasma was more than 100) | + (IgG reactive to a corresponding peptide was judged to be positive when a difference of the optical density (OD) in a 1:100-diluted plasma was more than 100) | 11/20 |  |  | 
2 | SYKHEQVYIR (PAP 96-105) [PAP-derived peptide] | 1/9 |  |  |  |  |  |  |  |  |  |  |  | 1/20 | + (IgG reactive to a corresponding peptide was judged to be positive when a difference of the optical density (OD) in a 1:100-diluted plasma was more than 100) |  | 
3 | LYLPFRNCPR (PAP 154-163) [PAP-derived peptide] | 0/9 |  |  |  |  |  | + (IgG reactive to a corresponding peptide was judged to be positive when a difference of the optical density (OD) in a 1:100-diluted plasma was more than 100) |  | + (IgG reactive to a corresponding peptide was judged to be positive when a difference of the optical density (OD) in a 1:100-diluted plasma was more than 100) |  |  |  | 3/20 |  | + (IgG reactive to a corresponding peptide was judged to be positive when a difference of the optical density (OD) in a 1:100-diluted plasma was more than 100) | 
4 | PSMA 456-463 (IEGNYTLR; UniProt Q04609 456-463, looked up, fragment) | 0/9 |  | + (IgG reactive to a corresponding peptide was judged to be positive when a difference of the optical density (OD) in a 1:100-diluted plasma was more than 100) | + (IgG reactive to a corresponding peptide was judged to be positive when a difference of the optical density (OD) in a 1:100-diluted plasma was more than 100) | + (IgG reactive to a corresponding peptide was judged to be positive when a difference of the optical density (OD) in a 1:100-diluted plasma was more than 100) |  | + (IgG reactive to a corresponding peptide was judged to be positive when a difference of the optical density (OD) in a 1:100-diluted plasma was more than 100) | + (IgG reactive to a corresponding peptide was judged to be positive when a difference of the optical density (OD) in a 1:100-diluted plasma was more than 100) |  | + (IgG reactive to a corresponding peptide was judged to be positive when a difference of the optical density (OD) in a 1:100-diluted plasma was more than 100) | + (IgG reactive to a corresponding peptide was judged to be positive when a difference of the optical density (OD) in a 1:100-diluted plasma was more than 100) | + (IgG reactive to a corresponding peptide was judged to be positive when a difference of the optical density (OD) in a 1:100-diluted plasma was more than 100) | 9/20 | + (IgG reactive to a corresponding peptide was judged to be positive when a difference of the optical density (OD) in a 1:100-diluted plasma was more than 100) |  | 
5 | SLYTKVVHYR [PSA 241-250] | 0/9 |  |  |  |  |  |  |  |  |  |  |  | 0/20 |  |  | 
6 | LYTKVVHYR (PSA 242-250) [PSA-derived peptide] | 0/9 |  |  |  |  |  |  |  |  |  |  |  | 0/20 |  |  | 
7 | VIARYGKVFR (PSMA 201-210) [PSMA-derived peptide] | 0/9 |  | + (IgG reactive to a corresponding peptide was judged to be positive when a difference of the optical density (OD) in a 1:100-diluted plasma was more than 100) |  | + (IgG reactive to a corresponding peptide was judged to be positive when a difference of the optical density (OD) in a 1:100-diluted plasma was more than 100) |  | + (IgG reactive to a corresponding peptide was judged to be positive when a difference of the optical density (OD) in a 1:100-diluted plasma was more than 100) | + (IgG reactive to a corresponding peptide was judged to be positive when a difference of the optical density (OD) in a 1:100-diluted plasma was more than 100) | + (IgG reactive to a corresponding peptide was judged to be positive when a difference of the optical density (OD) in a 1:100-diluted plasma was more than 100) | + (IgG reactive to a corresponding peptide was judged to be positive when a difference of the optical density (OD) in a 1:100-diluted plasma was more than 100) | + (IgG reactive to a corresponding peptide was judged to be positive when a difference of the optical density (OD) in a 1:100-diluted plasma was more than 100) | + (IgG reactive to a corresponding peptide was judged to be positive when a difference of the optical density (OD) in a 1:100-diluted plasma was more than 100) | 7/20 |  |  | 
8 | YPANEYAYRR (PSMA 272-281) [PSMA-derived peptide] | 0/9 | + (IgG reactive to a corresponding peptide was judged to be positive when a difference of the optical density (OD) in a 1:100-diluted plasma was more than 100) | + (IgG reactive to a corresponding peptide was judged to be positive when a difference of the optical density (OD) in a 1:100-diluted plasma was more than 100) |  | + (IgG reactive to a corresponding peptide was judged to be positive when a difference of the optical density (OD) in a 1:100-diluted plasma was more than 100) |  | + (IgG reactive to a corresponding peptide was judged to be positive when a difference of the optical density (OD) in a 1:100-diluted plasma was more than 100) | + (IgG reactive to a corresponding peptide was judged to be positive when a difference of the optical density (OD) in a 1:100-diluted plasma was more than 100) |  | + (IgG reactive to a corresponding peptide was judged to be positive when a difference of the optical density (OD) in a 1:100-diluted plasma was more than 100) | + (IgG reactive to a corresponding peptide was judged to be positive when a difference of the optical density (OD) in a 1:100-diluted plasma was more than 100) |  | 8/20 | + (IgG reactive to a corresponding peptide was judged to be positive when a difference of the optical density (OD) in a 1:100-diluted plasma was more than 100) |  | 
9 | DLVYVNYAR (PSMA 173-181) [PSMA-derived peptide] | 0/9 |  | + (IgG reactive to a corresponding peptide was judged to be positive when a difference of the optical density (OD) in a 1:100-diluted plasma was more than 100) | + (IgG reactive to a corresponding peptide was judged to be positive when a difference of the optical density (OD) in a 1:100-diluted plasma was more than 100) | + (IgG reactive to a corresponding peptide was judged to be positive when a difference of the optical density (OD) in a 1:100-diluted plasma was more than 100) |  |  | + (IgG reactive to a corresponding peptide was judged to be positive when a difference of the optical density (OD) in a 1:100-diluted plasma was more than 100) |  |  |  | + (IgG reactive to a corresponding peptide was judged to be positive when a difference of the optical density (OD) in a 1:100-diluted plasma was more than 100) | 5/20 |  |  | 
10 | HYELGEYIR (PAP 78-86) [PAP-derived peptide] | 1/9 |  |  |  |  |  |  |  |  |  |  |  | 1/20 | + (IgG reactive to a corresponding peptide was judged to be positive when a difference of the optical density (OD) in a 1:100-diluted plasma was more than 100) |  | + (IgG reactive to a corresponding peptide was judged to be positive when a difference of the optical density (OD) in a 1:100-diluted plasma was more than 100)
